This assay deals with MV-4-11 cells. In words: Gene expression microarray analysis (Affymetrix PrimeView) and GSEA. The format is cell-based, human. Set-up: RFU PODN (11730768_x_at) / Fold change /veh PODN (11730768_x_at) / RFU LINC00158 (11744669_a_at) / Fold change /veh LINC00158 (11744669_a_at) / RFU DUSP10 (11751237_a_at) / Fold change /veh DUSP10 (11751237_a_at) / RFU ID3 (11757404_x_at) / Fold change /veh ID3 (11757404_x_at) / RFU PLEKHG5 (11737974_s_at) / Fold change /veh PLEKHG5 (11737974_s_at) / RFU LRRC4B (11730491_at) / Fold change /veh LRRC4B (11730491_at) / RFU GIMAP4 (11747438_a_at) / Fold change /veh GIMAP4 (11747438_a_at) / RFU KRT8 (11758183_x_at) / Fold change /veh KRT8 (11758183_x_at) / RFU CNN1 (11734310_a_at) / Fold change /veh CNN1 (11734310_a_at) / RFU VPS37D (11726825_at) / Fold change /veh VPS37D (11726825_at) / RFU C10orf10 (11716522_x_at) / Fold change /veh C10orf10 (11716522_x_at) / RFU KIR2DL2 /// KIR2DL4 /// KIR2DL5A /// KIR2DL5B /// KIR2DS1 /// KIR2DS2 /// KIR2DS3 /// KIR2DS4 /// KIR3DL3 /// KIR3DL3 /// KIR3DS1 (11738374_at) / Fold change /veh KIR2DL2 /// KIR2DL4 /// KIR2DL5A /// KIR2DL5B /// KIR2DS1 /// KIR2DS2 /// KIR2DS3 /// KIR2DS4 /// KIR3DL3 /// KIR3DL3 /// KIR3DS1 (11738374_at) / RFU C1QL1 (11718748_at) / Fold change /veh C1QL1 (11718748_at) / RFU TMPRSS4 (11747572_a_at) / Fold change /veh TMPRSS4 (11747572_a_at) / RFU HAMP (11756126_x_at) / Fold change /veh HAMP (11756126_x_at) / RFU RNFT2 (11725882_a_at) / Fold change /veh RNFT2 (11725882_a_at) / RFU NR4A2 (11747474_a_at) / Fold change /veh NR4A2 (11747474_a_at) / RFU ABCC12 (11746883_a_at) / Fold change /veh ABCC12 (11746883_a_at) / RFU TMEM136 (11760407_x_at) / Fold change /veh TMEM136 (11760407_x_at) / RFU CLDN22 /// WWC2 (11732394_at) / Fold change /veh CLDN22 /// WWC2 (11732394_at) / RFU HLA-DPB1 (11760878_x_at) / Fold change /veh HLA-DPB1 (11760878_x_at) / RFU SPINT1 (11716480_a_at) / Fold change /veh SPINT1 (11716480_a_at) / RFU GAP43 (11754022_s_at) / Fold change /veh GAP43 (11754022_s_at) / RFU A4GNT (11735810_at) / Fold change /veh A4GNT (11735810_at) / RFU PRB3 (11715151_x_at) / Fold change /veh PRB3 (11715151_x_at) / RFU TUBB4B (11761932_at) / Fold change /veh TUBB4B (11761932_at) / RFU CAPN14 (11732068_a_at) / Fold change /veh CAPN14 (11732068_a_at) / RFU TMCC2 (11721928_a_at) / Fold change /veh TMCC2 (11721928_a_at) / RFU IRGQ (11745062_a_at) / Fold change /veh IRGQ (11745062_a_at) / RFU FAM174B (11720279_a_at) / Fold change /veh FAM174B (11720279_a_at) / RFU TMPRSS4 (11748680_a_at) / Fold change /veh TMPRSS4 (11748680_a_at) / RFU FAM212B (11763350_a_at) / Fold change /veh FAM212B (11763350_a_at) / RFU PLEKHG5 (11743358_a_at) / Fold change /veh PLEKHG5 (11743358_a_at) / RFU ZSCAN30 (11745921_a_at) / Fold change /veh ZSCAN30 (11745921_a_at) / RFU CMKLR1 (11741424_a_at) / Fold change /veh CMKLR1 (11741424_a_at) / RFU LOC101060620 /// MAPK8IP1 (11723275_at) / Fold change /veh LOC101060620 /// MAPK8IP1 (11723275_at) / RFU SPTSSB (11747773_x_at) / Fold change /veh SPTSSB (11747773_x_at) / RFU PRSS12 (11739890_at) / Fold change /veh PRSS12 (11739890_at) / RFU BIN1 (11741810_x_at) / Fold change /veh BIN1 (11741810_x_at) / RFU WNT11 (11732464_a_at) / Fold change /veh WNT11 (11732464_a_at) / RFU C10orf10 (11716521_a_at) / Fold change /veh C10orf10 (11716521_a_at) / RFU C5orf56 (11738089_at) / Fold change /veh C5orf56 (11738089_at) / RFU CYB561 (11721691_x_at) / Fold change /veh CYB561 (11721691_x_at) / RFU ANKRD19P (11752326_a_at) / Fold change /veh ANKRD19P (11752326_a_at) / RFU OR2T12 /// OR2T33 /// OR2T8 (11738714_s_at) / Fold change /veh OR2T12 /// OR2T33 /// OR2T8 (11738714_s_at) / RFU VCAN (11748164_a_at) / Fold change /veh VCAN (11748164_a_at) / RFU JSRP1 (11732532_at) / Fold change /veh JSRP1 (11732532_at) / RFU KRTAP10-11 (11738290_x_at) / Fold change /veh KRTAP10-11 (11738290_x_at) / RFU MYO3A (11730013_a_at) / Fold change /veh MYO3A (11730013_a_at) / RFU EBF3 (11725865_a_at) / Fold change /veh EBF3 (11725865_a_at) / RFU CAMK2N1 (11719241_x_at) / Fold change /veh CAMK2N1 (11719241_x_at) / RFU C5orf56 (11738088_a_at) / Fold change /veh C5orf56 (11738088_a_at) / RFU OLFML3 (11715873_a_at) / Fold change /veh OLFML3 (11715873_a_at) / RFU LOC100653217 /// NTM (11731650_a_at) / Fold change /veh LOC100653217 /// NTM (11731650_a_at) / RFU MAPK11 (11762145_a_at) / Fold change /veh MAPK11 (11762145_a_at) / RFU FIZ1 (11724087_x_at) / Fold change /veh FIZ1 (11724087_x_at) / RFU OASL (11726364_x_at) / Fold change /veh OASL (11726364_x_at) / RFU SOX15 (11748057_x_at) / Fold change /veh SOX15 (11748057_x_at) / RFU CD79A (11719716_a_at) / Fold change /veh CD79A (11719716_a_at) / RFU HIST1H1D (11736915_at) / Fold change /veh HIST1H1D (11736915_at) / RFU CASKIN2 (11723855_a_at) / Fold change /veh CASKIN2 (11723855_a_at) / RFU LOC730098 (11760151_x_at) / Fold change /veh LOC730098 (11760151_x_at) / RFU OR4N2 (11742367_at) / Fold change /veh OR4N2 (11742367_at) / RFU PRRT2 (11749266_a_at) / Fold change /veh PRRT2 (11749266_a_at) / RFU SNX32 (11753110_a_at) / Fold change /veh SNX32 (11753110_a_at) / RFU CDHR5 (11726645_a_at) / Fold change /veh CDHR5 (11726645_a_at) / RFU RCAN1 (11760418_a_at) / Fold change /veh RCAN1 (11760418_a_at) / RFU FAM167A (11723789_a_at) / Fold change /veh FAM167A (11723789_a_at) / RFU FAM26E (11764081_at) / Fold change /veh FAM26E (11764081_at) / RFU ISYNA1 (11749810_s_at) / Fold change /veh ISYNA1 (11749810_s_at) / RFU ACY1 (11761880_at) / Fold change /veh ACY1 (11761880_at) / RFU 11764098_at / Fold change /veh 11764098_at / RFU SAMD14 (11745864_x_at) / Fold change /veh SAMD14 (11745864_x_at) / RFU NPB (11741838_a_at) / Fold change /veh NPB (11741838_a_at) / RFU TMPRSS6 (11731388_a_at) / Fold change /veh TMPRSS6 (11731388_a_at) / RFU KRTAP10-2 (11738614_at) / Fold change /veh KRTAP10-2 (11738614_at) / RFU ARHGAP8 /// PRR5-ARHGAP8 (11727945_x_at) / Fold change /veh ARHGAP8 /// PRR5-ARHGAP8 (11727945_x_at) / RFU KRTAP5-7 /// NADSYN1 (11734609_at) / Fold change /veh KRTAP5-7 /// NADSYN1 (11734609_at) / RFU RASL12 (11751679_a_at) / Fold change /veh RASL12 (11751679_a_at) / RFU CDKN2B (11736163_a_at) / Fold change /veh CDKN2B (11736163_a_at) / RFU PRF1 (11729649_at) / Fold change /veh PRF1 (11729649_at) / RFU, ZNF638 /// ZNF638-IT1 / Fold change vs veh, ZNF638 /// ZNF638-IT1 / RFU, PANK3 / Fold change vs veh, PANK3 / RFU, SH3YL1 / Fold change vs veh, SH3YL1 / RFU, ZEB2 / Fold change vs veh, ZEB2 / RFU, NRIP1 / Fold change vs veh, NRIP1 / RFU, PTTG1IP / Fold change vs veh, PTTG1IP / RFU, CAPN2 / Fold change vs veh, CAPN2 / RFU, MED14 / Fold change vs veh, MED14 / RFU, SNORA58 / Fold change vs veh, SNORA58 / RFU, C1orf63 / Fold change vs veh, C1orf63 / RFU, LRRFIP1 / Fold change vs veh, LRRFIP1 / RFU, NDUFAF7 / Fold change vs veh, NDUFAF7 / RFU, SLC12A2 / Fold change vs veh, SLC12A2 / RFU, IBTK / Fold change vs veh, IBTK / RFU, ESF1 / Fold change vs veh, ESF1 / Fold change vs veh, TMEM50B / RFU, TAOK1 / Fold change vs veh, TAOK1 / RFU, ACBD3 / Fold change vs veh, ACBD3 / RFU, TMA16 / Fold change vs veh, TMA16 / RFU, RWDD3 / Fold change vs veh, RWDD3 / RFU, BCAT1 / Fold change vs veh, BCAT1 / RFU, EDEM3 / Fold change vs veh, EDEM3 / RFU, TMEM33 / Fold change vs veh, TMEM33 / RFU, WDR75 / Fold change vs veh, WDR75 / RFU, AHCTF1 / Fold change vs veh, AHCTF1 / RFU, TFRC / Fold change vs veh, TFRC / RFU, ZDHHC17 / Fold change vs veh, ZDHHC17 / RFU, NOM1 / Fold change vs veh, NOM1 / RFU, ARL8B / Fold change vs veh, ARL8B / RFU, ZBTB11 / Fold change vs veh, ZBTB11 / RFU, TAMM41 / Fold change vs veh, TAMM41 / RFU, KIAA1704 /// LOC100996395 / Fold change vs veh, KIAA1704 /// LOC100996395 / RFU, ING1 / Fold change vs veh, ING1 / RFU, TRMT61B / Fold change vs veh, TRMT61B / RFU, FUBP3 / Fold change vs veh, FUBP3 / RFU, TP53 / Fold change vs veh, TP53 / RFU, TNKS2 / Fold change vs veh, TNKS2 / RFU, ZFP14 / Fold change vs veh, ZFP14 / RFU, ACTR2 / Fold change vs veh, ACTR2 / RFU, PPP3R1 / Fold change vs veh, PPP3R1 / RFU, PIK3R1 / Fold change vs veh, PIK3R1 / RFU, HNRNPA1 / Fold change vs veh, HNRNPA1 / RFU, RNF170 / Fold change vs veh, RNF170 / RFU, ZNF28 / Fold change vs veh, ZNF28 / RFU, RNGTT / Fold change vs veh, RNGTT / RFU, OGT / Fold change vs veh, OGT / RFU, BRD1 / Fold change vs veh, BRD1 / RFU, MARS / Fold change vs veh, MARS / RFU, ZNF655 / Fold change vs veh, ZNF655 / RFU, FAHD1 / Fold change vs veh, FAHD1 / RFU, BDP1 / Fold change vs veh, BDP1 / RFU, LRRCC1 / Fold change vs veh, LRRCC1 / RFU, ARID1A / Fold change vs veh, ARID1A / RFU, ZNF146 / Fold change vs veh, ZNF146 / RFU, ZNF330 / Fold change vs veh, ZNF330 / RFU, GPN3 / Fold change vs veh, GPN3 / RFU, C9orf123 / Fold change vs veh, C9orf123 / RFU, N4BP2L2 / Fold change vs veh, N4BP2L2 / RFU, ARFIP1 / Fold change vs veh, ARFIP1 / RFU, FAM179B / Fold change vs veh, FAM179B / RFU, BCL10 / Fold change vs veh, BCL10 / RFU, UHRF1BP1L / Fold change vs veh, UHRF1BP1L / RFU, BET1 / Fold change vs veh, BET1 / RFU, CNOT2 / Fold change vs veh, CNOT2 / RFU, ZNF268 / Fold change vs veh, ZNF268 / Fold change vs veh, ZNF507 / RFU, DGCR2 / Fold change vs veh, DGCR2 / RFU, WDSUB1 / Fold change vs veh, WDSUB1 / Fold change vs veh, HSP90B1 /// MIR3652 / RFU, ADSS / Fold change vs veh, ADSS / RFU, GK / Fold change vs veh, GK / RFU, ZNF148 / Fold change vs veh, ZNF148 / RFU, TAF9 / Fold change vs veh, TAF9 / RFU, SLC1A5 / Fold change vs veh, SLC1A5 / RFU, SLMO2 / Fold change vs veh, SLMO2 / RFU, ABCC4 / Fold change vs veh, ABCC4 / RFU, LOC101060439 /// RAP1B / Fold change vs veh, LOC101060439 /// RAP1B / RFU, RFX7 / Fold change vs veh, RFX7 / RFU, GTPBP10 / Fold change vs veh, GTPBP10 / RFU, CNEP1R1 / Fold change vs veh, CNEP1R1 / RFU, BIVM-ERCC5 /// ERCC5 / Fold change vs veh, BIVM-ERCC5 /// ERCC5 / RFU, ILF3 / Fold change vs veh, ILF3 / RFU 11762660_at / Fold change /veh 11762660_at / RFU VCAN (11757783_s_at) / Fold change /veh VCAN (11757783_s_at) / RFU DDX43 (11728927_at) / Fold change /veh DDX43 (11728927_at) / RFU KRT8 (11758188_x_at) / Fold change /veh KRT8 (11758188_x_at) / RFU NKD1 (11759106_at) / Fold change /veh NKD1 (11759106_at) / RFU SRD5A1 (11742802_a_at) / Fold change /veh SRD5A1 (11742802_a_at) / RFU TPSAB1 /// TPSB2 (11721975_s_at) / Fold change /veh TPSAB1 /// TPSB2 (11721975_s_at) / RFU GSTM3 (11746129_a_at) / Fold change /veh GSTM3 (11746129_a_at) / RFU IL23R (11737362_x_at) / Fold change /veh IL23R (11737362_x_at) / RFU TMEM51 (11727254_a_at) / Fold change /veh TMEM51 (11727254_a_at) / RFU PIWIL2 (11732686_x_at) / Fold change /veh PIWIL2 (11732686_x_at) / RFU ORM1 (11744905_x_at) / Fold change /veh ORM1 (11744905_x_at) / RFU CCDC152 (11743942_at) / Fold change /veh CCDC152 (11743942_at) / RFU ECM1 (11717891_a_at) / Fold change /veh ECM1 (11717891_a_at) / RFU IL23R (11748794_a_at) / Fold change /veh IL23R (11748794_a_at) / RFU TNFAIP8L3 (11732012_x_at) / Fold change /veh TNFAIP8L3 (11732012_x_at) / RFU MBOAT4 (11741988_at) / Fold change /veh MBOAT4 (11741988_at) / RFU 11764193_at / Fold change /veh 11764193_at / RFU TMEM53 (11763286_at) / Fold change /veh TMEM53 (11763286_at) / RFU MAGEB2 (11727129_at) / Fold change /veh MAGEB2 (11727129_at) / RFU TMEM200A (11744735_a_at) / Fold change /veh TMEM200A (11744735_a_at) / RFU CCDC152 (11751479_a_at) / Fold change /veh CCDC152 (11751479_a_at) / RFU FAM211A (11726209_a_at) / Fold change /veh FAM211A (11726209_a_at) / RFU RGS16 (11746705_a_at) / Fold change /veh RGS16 (11746705_a_at) / RFU VCAN (11755009_s_at) / Fold change /veh VCAN (11755009_s_at) / RFU RHOB (11743442_s_at) / Fold change /veh RHOB (11743442_s_at) / RFU RGS16 (11720943_a_at) / Fold change /veh RGS16 (11720943_a_at) / RFU RGS16 (11720944_at) / Fold change /veh RGS16 (11720944_at) / RFU, VPS4B / Fold change vs veh, VPS4B / RFU, CREB1 / Fold change vs veh, CREB1 / RFU, DNAJC13 / Fold change vs veh, DNAJC13 / RFU, GNAQ / Fold change vs veh, GNAQ / RFU, CDK5R1 / Fold change vs veh, CDK5R1 / RFU, ZRANB3 / Fold change vs veh, ZRANB3 / RFU, CUL4A / Fold change vs veh, CUL4A / RFU, CCNY / Fold change vs veh, CCNY / RFU, UFL1 / Fold change vs veh, UFL1 / RFU, COG3 / Fold change vs veh, COG3 / RFU, DIAPH2 / Fold change vs veh, DIAPH2 / RFU, SKA2 / Fold change vs veh, SKA2 / RFU, AFF3 / Fold change vs veh, AFF3 / RFU, LMF1 / Fold change vs veh, LMF1 / RFU, IPO11 / Fold change vs veh, IPO11 / RFU, DFFB / Fold change vs veh, DFFB / RFU, FOXP1 / Fold change vs veh, FOXP1 / RFU, CARD8 / Fold change vs veh, CARD8 / RFU, STRN3 / Fold change vs veh, STRN3 / RFU, ADK / Fold change vs veh, ADK / RFU, RASSF2 / Fold change vs veh, RASSF2 / RFU, WIPF1 / Fold change vs veh, WIPF1 / RFU, LARP1B / Fold change vs veh, LARP1B / RFU, RASA1 / Fold change vs veh, RASA1 / RFU, RB1 / Fold change vs veh, RB1 / RFU, PPFIA1 / Fold change vs veh, PPFIA1 / RFU, MAT2A / Fold change vs veh, MAT2A / RFU, CCT5 / Fold change vs veh, CCT5 / RFU, WDR92 / Fold change vs veh, WDR92 / RFU, CUX1 / Fold change vs veh, CUX1 / RFU, TTC7A / Fold change vs veh, TTC7A / RFU, TMEM135 / Fold change vs veh, TMEM135 / RFU, DEPTOR / Fold change vs veh, DEPTOR / RFU, CPM / Fold change vs veh, CPM / RFU, DNAJB6 / Fold change vs veh, DNAJB6 / RFU, CACNA2D3 / Fold change vs veh, CACNA2D3 / RFU, DTX4 / Fold change vs veh, DTX4 / RFU, TFCP2 / Fold change vs veh, TFCP2 / RFU, GMCL1 /// GMCL1P1 / Fold change vs veh, GMCL1 /// GMCL1P1 / RFU, AEBP2 / Fold change vs veh, AEBP2 / RFU, SNHG1 /// SNORD22 /// SNORD25 /// SNORD26 /// SNORD27 /// SNORD28 /// SNORD29 /// SNORD31 / Fold change vs veh, SNHG1 /// SNORD22 /// SNORD25 /// SNORD26 /// SNORD27 /// SNORD28 /// SNORD29 /// SNORD31 / Fold change (Aza/veh), C12orf56 (ProbeSet 11735607_a_at) / Fold change (ACY-1035/veh), C12orf56 (ProbeSet 11735607_a_at) / Fold change (Aza/veh), FGFR1OP (ProbeSet 11751329_s_at) / Fold change (ACY-1035/veh), FGFR1OP (ProbeSet 11751329_s_at) / Fold change (Aza/veh), VPS36 (ProbeSet 11739960_a_at) / Fold change (ACY-1035/veh), VPS36 (ProbeSet 11739960_a_at) / RFU SYPL1 (11715823_x_at) / Fold change /veh SYPL1 (11715823_x_at) / RFU IGFBP7 (11715501_s_at) / Fold change /veh IGFBP7 (11715501_s_at) / RFU REEP3 (11722064_at) / Fold change /veh REEP3 (11722064_at) / RFU IGLL1 (11728026_x_at) / Fold change /veh IGLL1 (11728026_x_at): dose or concentration left out as unconfirmed. The note with it: ProbeSet 11758397_s_at; LIST B.

From publication PMC5218480 (PLoS ONE, 2017) come the findings set out here.

Each structure is given as a SMILES string.

Take `Nc1ccc(-c2cccs2)cc1NC(=O)c1ccc2c(c1)cc(C1CC1)n2CCN1CCOCC1` [ACY-1035]: the “Fold change vs veh, RNF170” value is given as 0.96.
